{
  "source": "patent US20140024674A1",
  "about": "“TRPM5 INHIBITORS SUPPORT BODY WEIGHT REDUCTION WITHOUT REDUCING FOOD INTAKE” (NESTEC S.A., priority 2011, published 2014)",
  "key": {"[1]": {"assay": "Quinine-supplemented diet in wild type mice over 12 weeks: body weight, body composition (NMR), food intake", "type": "in vivo", "details": "for mean fat mass at the end of the trial: control 7.65 g±0.47", "method": "Body composition was determined on […] mice by nuclear magnetic resonance (NMR) using an EchoMRI-900 Body Composition Analyzer (Echo Medical System, LLC, Houston, Tex., USA).\nThree groups of wild type male C57BL6 mice 3 months old, 20 mice per group, were fed either a semi-synthetic (AlN) diet, or AlN diet with 0.1% quinine, or AlN diet with 0.01% quinine.\nBody weight was measured weekly, body composition was measured monthly, food and fluid intake were measured twice a week over a period of 12 weeks."}, "Trpm5": {"target": "T1, Trpm5 (Mus musculus, UniProt Q9JJH7)", "T1 sequence (Q9JJH7 1-1158)": "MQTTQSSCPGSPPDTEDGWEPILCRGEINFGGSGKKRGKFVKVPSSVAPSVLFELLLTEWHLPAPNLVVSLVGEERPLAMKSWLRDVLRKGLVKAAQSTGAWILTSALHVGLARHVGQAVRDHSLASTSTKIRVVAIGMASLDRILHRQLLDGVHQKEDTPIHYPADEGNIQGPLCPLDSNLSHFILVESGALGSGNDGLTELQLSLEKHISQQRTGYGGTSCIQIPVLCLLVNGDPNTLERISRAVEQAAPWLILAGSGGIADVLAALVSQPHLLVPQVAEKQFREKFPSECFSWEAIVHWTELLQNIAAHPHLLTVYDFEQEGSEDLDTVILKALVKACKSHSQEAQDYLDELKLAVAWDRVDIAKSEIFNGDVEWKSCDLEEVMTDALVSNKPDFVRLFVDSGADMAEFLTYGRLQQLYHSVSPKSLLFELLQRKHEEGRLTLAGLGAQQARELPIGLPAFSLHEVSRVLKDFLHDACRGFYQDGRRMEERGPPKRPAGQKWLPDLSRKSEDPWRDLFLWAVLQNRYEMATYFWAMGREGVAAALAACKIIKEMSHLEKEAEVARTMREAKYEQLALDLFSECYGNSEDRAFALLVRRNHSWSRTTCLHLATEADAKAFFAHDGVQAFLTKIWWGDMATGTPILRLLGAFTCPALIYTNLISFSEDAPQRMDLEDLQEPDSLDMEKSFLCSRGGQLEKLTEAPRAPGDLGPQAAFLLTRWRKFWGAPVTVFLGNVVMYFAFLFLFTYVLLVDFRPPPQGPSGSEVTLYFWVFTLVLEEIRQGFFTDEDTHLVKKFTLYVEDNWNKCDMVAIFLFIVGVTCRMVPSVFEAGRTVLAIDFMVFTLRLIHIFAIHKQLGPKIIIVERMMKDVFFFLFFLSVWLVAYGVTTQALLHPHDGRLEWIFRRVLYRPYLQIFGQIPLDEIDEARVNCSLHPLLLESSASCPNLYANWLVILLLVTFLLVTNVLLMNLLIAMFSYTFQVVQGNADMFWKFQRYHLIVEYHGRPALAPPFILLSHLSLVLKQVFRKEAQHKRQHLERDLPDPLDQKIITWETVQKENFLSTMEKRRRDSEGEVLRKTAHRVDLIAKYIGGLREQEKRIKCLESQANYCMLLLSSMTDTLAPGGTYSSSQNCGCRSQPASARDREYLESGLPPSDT", "details": "Talayera et al, 2008, FASEB J.; cited from earlier work"}},
  "note": "Entries after “also recorded” stand apart in the source; their conditions may differ.",
  "data": [
    {"smiles": "C=C[C@H]1CN2CC[C@H]1C[C@H]2[C@H](O)c1ccnc2ccc(OC)cc12", "note": "[quinine, (R)-(6-methoxyquinolin-4-yl)((2S,4S,8R)-8-vinylquinuclidin-2-yl)methanol]", "values": [
      {"measurement": "mean fat mass at the end of the trial", "setting": "[1]; wild type male C57BL6 mice, AlN diet with 0.01% quinine, 12 weeks, NMR", "result": 7.9675, "unit": "g"},
      {"measurement": "Body weight gain", "setting": "[1]; wild type male C57BL6 mice, AlN diet with 0.01% quinine, 12 weeks, vs control diet", "result": "not different from control"},
      {"measurement": "mean fat mass at the end of the trial", "setting": "[1]; wild type male C57BL6 mice, AlN diet with 0.1% quinine, 12 weeks, NMR, p<0.01 compared to control", "result": 5.524, "unit": "g"},
      {"measurement": "Body weight gain", "setting": "[1]; wild type male C57BL6 mice, AlN diet with 0.1% quinine, 12 weeks, vs control diet (p<0.01)", "result": "gained less weight; also recorded: significantly lower"},
      {"measurement": "lean mass", "setting": "[1]; wild type male C57BL6 mice, diet with 0.1% or 0.01% quinine vs control diet, 12 weeks, NMR", "result": "no difference between groups"},
      {"measurement": "Total food intake", "setting": "[1]; wild type male C57BL6 mice, diet with 0.1% or 0.01% quinine vs control diet, over 12 weeks", "result": "food intake was not different between the groups; also recorded: no difference in food intake between groups"},
      {"measurement": "fat mass gain vs control diet", "setting": "[1]; wild type mice, 0.1% quinine supplemented diet, 12 weeks", "result": "gained less weight and fat mass"},
      {"measurement": "inhibition of Trpm5", "setting": "Trpm5", "result": "inhibitor of Trpm5"}
    ]}
  ]
}
